The text below walks through data of ChEMBL document CHEMBL6134883, “Novel Piperidinylpyridinylcarbonitrile Derivatives as QPCT and QPCTL Inhibitors for Treating Cancer” (ACS Med Chem Lett, 2025).

For orientation: IC50 means the point on the concentration scale where inhibition reaches its midpoint.

This test in a line: Inhibition of N-terminal His/DDK-tagged recombinant human QPCTL extracted from HEK293T cells using QLLFNKTKSVEFTFC as substrate preincubated for 10 mins followed by substrate addition measured after 40 mins by MALDI-TOF MS analysis. The test is classed as cell-free.
Consider `Cn1cnnc1C1(F)CCN(c2c(C#N)cc(C3CC3(F)F)nc2-c2cnc3nn(C(C)(C)C)cc3c2)CC1` (stereo unspecified), for which the IC50 was 1 nM.
The value for `Cn1cnnc1C1(F)CCN(c2c(C#N)ccnc2-c2cnn3nc(-c4cccc(Cl)c4)ccc23)CC1` was 1 nM; that for `Cn1cnnc1C1(F)CCN(c2c(C#N)cc(C(F)(F)F)nc2-c2cnc3nc(C(C)(C)C)oc3c2)CC1` was 1 nM.
For `Cn1cnnc1C1(F)CCN(c2c(C#N)cc(C(C)(C)O)nc2-c2cnc3nn(C(C)(C)C)c(Cl)c3c2)CC1`, the IC50 was found to be 1 nM.
To `Cc1ccc(-c2ccc3c(-c4nccc(C#N)c4N4CCC(F)(c5nncn5C)CC4)cnn3n2)c(C)c1` belongs 1 nM; to `Cc1ccccc1-c1ccc2c(-c3nccc(C#N)c3N3CCC(F)(c4nncn4C)CC3)cnn2n1`, 1 nM.
